These results are taken from patent publication US20230226136A1, “A SYNERGISTIC FORMULATION FOR MANAGEMENT OF RESPIRATORY PATHOGENS INCLUDING CORONAVIRUSES” (priority 2020, published 2023).

Experiment [1] can be described thus: Effective concentrations of components of the formulation (tested in 200 uL of the formulation). The conditions noted are these: for Actual concentrations that were effective in 200 uL, 1:20 dilution: concentration of the component within the formulation at 1:20 dilution. As to the method:
Table 1 depicts the concentration of the biological, non-toxic peptide molecules included in the formulation of the present invention. The synergistic formulation of the present invention is prepared in various combinations of the constituents including protease inhibitor, 9 Arg, ion chelator, FDHIVY, Poly-Lys (L8), Anti-HAT, and vitamin B12. Each combination may include some of the above mentioned constituents depending on the use of the formulation. These concentrations of the components of the synergistic formulations of the present invention have been tested to be effective in 200 μL of the formulation.

Experiment [2] deals with SARS-CoV-2. Kind of experiment: IC-50 plaque assay against SARS-CoV-2. The conditions noted are these: highest concentration tested 25 μM, FIG. 3. It is filed as cell-based.
Description: The IC-50 value of Remdesivir was calculated by considering the top and baseline value 100 and 0 respectively.
The IC-50 of the test material was calculated by considering the top and baseline value 100 and 0 respectively.

As for 9-L-Arginine-peptide [9 Arg], the “Actual concentrations that were effective in 200 uL, 1:20 dilution” value in experiment [1] amounted to 2 mM. In addition, the “Actual concentrations that were effective in 200 uL, 1:30 dilution” value in experiment [1] (concentration of the component within the formulation at 1:30 dilution) is on record as 1.3 mM.

On to `CCC(CC)COC(=O)[C@H](C)N[P@](=O)(OC[C@H]1O[C@@](C#N)(c2ccc3c(N)ncnn23)[C@H](O)[C@@H]1O)Oc1ccccc1` [Remdesivir], for which, in experiment [2], the “reduction in viral load” value is given as “up to 86.84%”.

“Phenylalanine-Aspartic acid-Histidine-Isoleucine-Valine-Tyrosine [FDHIVY]”: the “Actual concentrations that were effective in 200 uL, 1:20 dilution” value in experiment [1] amounted to 0.25 µg/mL.
